Data reported in ChEMBL document CHEMBL3045275, “Synthesis and antibacterial activity of some new hydrazones” (2013).

Tests used:
Format in all cases: functional
Conditions in all cases: read-out: DIZ
[1] = test system: Bacillus subtilis; assay: Antibacterial activity against Bacillus subtilis assessed as diameter of growth inhibition zone at 50 ug/ml after 24 hr by agar diffusion method
[2] = test system: Pseudomonas aeruginosa; assay: Antibacterial activity against Pseudomonas aeruginosa assessed as diameter of growth inhibition zone at 100 ug/ml after 24 hr by agar diffusion method
[3] = test system: Staphylococcus aureus; assay: Antibacterial activity against Staphylococcus aureus assessed as diameter of growth inhibition zone at 100 ug/ml after 24 hr by agar diffusion method
[4] = test system: Staphylococcus aureus; assay: Antibacterial activity against Staphylococcus aureus assessed as diameter of growth inhibition zone at 50 ug/ml after 24 hr by agar diffusion method
[5] = test system: Salmonella typhi; assay: Antibacterial activity against Salmonella enterica subsp. enterica serovar Typhi assessed as diameter of growth inhibition zone at 50 ug/ml after 24 hr by agar diffusion method
[6] = test system: Proteus mirabilis; assay: Antibacterial activity against Proteus mirabilis assessed as diameter of growth inhibition zone at 50 ug/ml after 24 hr by agar diffusion method
[7] = test system: Salmonella typhi; assay: Antibacterial activity against Salmonella enterica subsp. enterica serovar Typhi assessed as diameter of growth inhibition zone at 100 ug/ml after 24 hr by agar diffusion method
[8] = test system: Pseudomonas aeruginosa; assay: Antibacterial activity against Pseudomonas aeruginosa assessed as diameter of growth inhibition zone at 50 ug/ml after 24 hr by agar diffusion method
[9] = test system: Proteus mirabilis; assay: Antibacterial activity against Proteus mirabilis assessed as diameter of growth inhibition zone at 100 ug/ml after 24 hr by agar diffusion method
[10] = test system: Escherichia coli; assay: Antibacterial activity against Escherichia coli assessed as diameter of growth inhibition zone at 100 ug/ml after 24 hr by agar diffusion method
[11] = test system: Escherichia coli; assay: Antibacterial activity against Escherichia coli assessed as diameter of growth inhibition zone at 50 ug/ml after 24 hr by agar diffusion method
[12] = test system: Bacillus subtilis; assay: Antibacterial activity against Bacillus subtilis assessed as diameter of growth inhibition zone at 100 ug/ml after 24 hr by agar diffusion method

SMILES | zone of inhibition at 50 µg/mL [1] [mm] | zone of inhibition at 100 µg/mL [2] [mm] | zone of inhibition at 100 µg/mL [3] [mm] | zone of inhibition at 50 µg/mL [4] [mm] | zone of inhibition at 50 µg/mL [5] [mm] | zone of inhibition at 50 µg/mL [6] [mm] | zone of inhibition at 100 µg/mL [7] [mm] | zone of inhibition at 50 µg/mL [8] [mm] | zone of inhibition at 100 µg/mL [9] [mm] | zone of inhibition at 100 µg/mL [10] [mm] | zone of inhibition at 50 µg/mL [11] [mm] | zone of inhibition at 100 µg/mL [12] [mm]
O=[N+]([O-])c1ccc(N/N=C(/C=C/c2ccccc2)c2ccccc2)c([N+](=O)[O-])c1 | 6.5 | 8.5 | 8.5 | 6 | 6.5 | 6.5 | 8.5 | 6 | 9.5 | 8 | 6.5 | 9
CC(/C=C/c1ccccc1)=N\Nc1ccccc1 | 6.5 | 8.5 | 8.5 | 6 | 6.5 | 6 | 8.5 | 6 | 9 | 8.5 | 6 | 8.5
CC1=NC(=C/c2ccccc2)/C(=N/Nc2ccccc2)O1 | 6 | 8 | 16 | 14 | 6 | 6.5 | 8 | 6 | 8.5 | 9 | 6.5 | 9.5
CC1=NC(=C/c2ccccc2)/C(=N/Nc2ccc([N+](=O)[O-])cc2[N+](=O)[O-])O1 | 6 | 8.5 | 9 | 6.5 | 6.5 | 6 | 8 | 6 | 9.5 | 8.5 | 6 | 9
CC(/C=C/c1ccccc1)=N/Nc1nc(-c2ccccc2)cs1 | 6 | 8 | 9.5 | 6.5 | 6 | 6.5 | 8 | 6 | 8 | 9 | 6 | 8.5
C(=C\c1ccccc1)/C(=N\Nc1nc(-c2ccccc2)cs1)c1ccccc1 | 6.5 | 8 | 8.5 | 6.5 | 6 | 6.5 | 8 | 6 | 8.5 | 8.5 | 7 | 8.5
CC(/C=C/c1ccccc1)=N\Nc1ccc(-c2nc3ccccc3[nH]2)cc1 | 6 | 8 | 8 | 6.5 | 6 | 6.5 | 8 | 6 | 8.5 | 9 | 6.5 | 8.5
C(=C\c1ccccc1)/C(=N/Nc1ccc(-c2nc3ccccc3[nH]2)cc1)c1ccccc1 | 6 | 8.5 | 9 | 6.5 | 6.5 | 6 | 8 | 6 | 8.5 | 8.5 | 6 | 8.5
CC(/C=C/c1ccccc1)=N\NC(=O)c1ccncc1 | 6 | 8 | 8.5 | 6 | 6 | 6 | 8.5 | 6 | 8.5 | 8 | 6 | 8.5
O=C(N/N=C(/C=C/c1ccccc1)c1ccccc1)c1ccncc1 | 6 | 8.5 | 8 | 6 | 6 | 6.5 | 8 | 6 | 8 | 8 | 6 | 8.5
O=C(O)c1cn(C2CC2)c2cc(N3CCNCC3)c(F)cc2c1=O [CIPROFLOXACIN] | 18 |  |  | 18 | 18 | 19.5 |  | 19 |  |  | 18.5 | 
